Reference: US20170182015A1, “METHODS OF USING SNS-595 FOR TREATMENT OF CANCER SUBJECTS WITH REDUCED BRCA2 ACTIVITY” (Sunesis Pharmaceuticals, Inc., priority 2009, published 2017)

Experiments:
[1] = tested on: VC8 cells (BRCA2 mutant); assay: Growth inhibition (proliferation) assay in BRCA2 mutant cells; assay type: cell-based, Chinese hamster; settings: for IC50: Cricetulus griseus, V-C8, VC8 cells mutant for BRCA2, 4 hr treatment, 120 hr incubation, resazurin; for increase in sensitivity in cells mutant for BRCA2 as compared to cells expressing functional BRCA2: VC8 vs VC8-B2, ratio of IC50
Procedure: (§1) The VC8 and VC8-B2 cell lines originate from V79 Chinese hamster […] fibroblast cells. VC8 has a mutation in the brca2 gene and VC8-B2 is this cell line complemented with the human chromosome 13 (containing the brca2 gene; […] Zwet et al., Mol Cell Biol, 2002, 22(2):669-679). The influence of BRCA2 on sensitivity to SNS-595 was evaluated by a proliferation assay in Chinese hamster cells mutant (VC8) and complemented for functional BRCA2 (VC8-B2). […] The following protocol was used for the assay: 1. 4000 cells/well were plated in a 96-well plate such that half of the plate contained VC8 cells, and other half contained VC8-B2 cells. The last column was left cell-free as background control. 2. The plate was incubated at 37° C. with 5% CO2. 1. The media was removed and 50 μL of fresh media was added into each well. 2. […] 3. 100 μL from the first column was transferred into second column and mixed. 100 μL from the second column was transferred into third column and mixed and so on until end of plate. One column was left untreated. The plate was incubated at 37° C. with 5% CO2. […] After 4 hr treatment, plate was washed twice with 100 μL PBS and 250 μL media was added. The plate was incubated at 37° C. with 5% CO2. 1. After 120 hr incubation, the plate was washed with 100 μL PBS and 100 μL resaszurin (10 μg/mL in phenol red-free complete DMEM) was added. 2.

[2] = tested on: SPD8 cells; assay: Recombination assay: cloning efficiency; assay type: cell-based, Chinese hamster; settings: SNS-595 2 μM, doxorubicin 0.5 μM; for cloning efficiency: alone, 4 hr treatment; for effect of aphidicolin (S-phase blocker) co-treatment on cytotoxicity: co-treatment with aphidicolin 0.5 μM
Text: (§2) The SPD8 cell line carries a spontaneously derived mutation in the hprt gene and was isolated as a 6-thioguanine (6TG) resistant clone from the V79 Chinese hamster fibroblast cell line. The mutation within the hprt gene is a tandem duplication of exon 7, intron 6, and the 3′ portion of exon 6 that results in expression of a non-functional HPRT protein (Darè et al., Somat Cell Mol Genet, 1996, 22:201-210; and Helleday et al., J Mol Biol, 1998, 279(4):687-694). This duplication can be lost through HR that revert the hprt gene to wild-type, which can be selected for in HAsT (50 μM hypoxanthine, 10 μM L-azaserine, 5 μM thymidine) (Helleday et al. 1998). The DMEM was supplemented with 6TG (5 μg/mL) in order to kill cells that undergo spontaneous reversion. The addition of 6TG at this concentration affects neither the growth rate of these mutants nor the recombination assay procedure.
(§3) Each flask (75 cm^2) was inoculated with 1.5×10^6 SPD8 cells 24 hr prior to treatment with SNS-595 (2 μM) or doxorubicin (0.5 μM) and in co-treatment with aphidicolin (0.5 μM). After 4 hr of treatment, flasks were rinsed twice with PBS and 20 mL DMEM was added. Cells were then incubated for 48 hr to recover before plating onto Petri dishes. Cloning efficiency was measured by plating 500 cells in 10 mL of medium, two Petri dishes per dose. HPRT+ revertants were selected for by plating 3×10^5 cells/dish in the presence of HAsT (50 μM hypoxanthine,10 μM L-azaserine, 5μM thymidine), three dishes per dose. After 7 and 10 days, respectively, the plates were harvested and the colonies were fixed and stained using methylene blue in methanol (4 g/L). Colonies containing more than 50 cells were counted.

[3] = tested on: VC8-B2 cells (complemented for functional BRCA2); assay: Growth inhibition (proliferation) assay in BRCA2 complemented cells; assay type: cell-based, Chinese hamster; settings: Cricetulus griseus; VC8-B2 cells expressing functional BRCA2; 4 hr treatment, 120 hr incubation, resazurin
Procedure: as §1

[4] = tested on: SPD8 cells (hprt gene reversion by homologous recombination); assay: Recombination assay: HPRT mutation reversion frequency; assay type: cell-based, Chinese hamster; settings: for reversion frequency: alone, SNS-595 2 μM, doxorubicin 0.5 μM, 4 hr treatment; for effect of S-phase block (aphidicolin co-treatment) on induced reversion rate / recombination events: co-treatment with aphidicolin 0.5 μM
Text: as §2, §3

[5] = tested on: U-2 OS cells; assay: Colony outgrowth assay (clonogenic survival), wild-type vs BRCA2 siRNA depleted; assay type: cell-based, human; settings: 14 days
Procedure: Activity of SNS-595 in these assays was evaluated by clonogenic survival and compared with doxorubicin. The following protocol was used for the assay:
1. 200,000 cells were plated in each of 2 wells in a 6-well plate, and incubated over night at 37° C. and 5% CO2 atmosphere.
A: Test: 50 μL of 2 μM siBRCA2 (si Genome SMARTpool, Dharmacon)+150 μL OptiMEM (Gibco)
B: Control (no siRNA): 200 μL OptiMEM
C: 2 μL DharmaFect 1 (Dharmacon)+198 μL OptiMEM
2. Reagents were allowed to stand at room temperature for 5 minutes.
3. Reagents A+C and B+C were mixed and allowed to stand at room temperature for 20 min.
4. The media in wells was replaced with 1.6 mL of antibiotic-free media (DMEM, Gibco).
5. 400 μL of reagents A+B or B+C were added and mixed in wells. The plate was incubated at 37° C.
1. After 24 hr of siRNA treatment, cells were trypsinized and counted.
2. Cells were plated in 100 mm dishes at 500 or 1000 cells/dish in 10 mL media and incubated for 4 hr.
3. After 4 hr, test substances were added and plates were incubated for 14 days.
1. The plates were harvested and cells were fixed in methylene blue (4g/L in methanol) and colonies containing more than 50 cells were counted.

[6] = tested on: SPD8 cells; assay: Pulsed field gel electrophoresis (PFGE) of DNA fragments; assay type: cell-based, Chinese hamster
Text: as §2
Two million (2×10^6) SPD8 cells were seeded in flasks (75 cm^2) and incubated overnight. Subsequently, cells were treated with SNS-595 (20 μM) or doxorubicin (3 μM) and in co-treatment with aphidicolin (3 μM) for 4 hr before being melted into agarose insert (1×10^6 cells/70 μL 1% InCert Agarose, BMA). Inserts were transferred to 0.5 M EDTA, 1% N-laurylsarcosyl and proteinase K (1 mg/mL) and incubated at 50° C. for 48 hr and thereafter washed four times in TE-buffer (2 hr between each wash) prior to loading onto an agarose separation gel (1% Chromosomal grade agarose, Bio-Rad). Separation was performed on a CHEF DR III system (BioRad; 120° field angle, 240 seconds switch time, 4 V/cm) for 18 hr or for 24 hours with 60 to 240 seconds switch time. The gel was stained with ethidium bromide for 5 hr and subsequently analyzed by scanning fluorescence reader (Molecular Imager FX, BioRad) using Quantative One software.

Compound | IC50 [1] | increase in sensitivity in cells mutant for BRCA2 as compared to cells expressing functional BRCA2 [1] | cloning efficiency [2] | effect of aphidicolin (S-phase blocker) co-treatment on cytotoxicity [2] | IC50 [3] | reversion frequency [4] | effect of S-phase block (aphidicolin co-treatment) on induced reversion rate / recombination events [4] | sensitivity of U-2 OS cells depleted for BRCA2 using siRNA relative to wild-type cells [5] | production of small DNA fragments ([6]; FIG. 5 and 6, SNS-595 20 μM, doxorubicin 3 μM, 4 hr, PFGE 18 hr and 24 hr runs) | production of small DNA fragments ([6]; FIG. 7, 18 hr PFGE run, 240 seconds switch time) | production of small DNA fragments ([6]; FIG. 8, 24 hr PFGE run, 60 to 240 seconds switch time)
CN[C@H]1CN(c2ccc3c(=O)c(C(=O)O)cn(-c4nccs4)c3n2)C[C@@H]1OC [SNS-595, (+)-1,4-dihydro-7-[(3S,4S)-3-methoxy-4-(methylamino)-1-pyrrolidinyl]-4-oxo-1-(2-thiazolyl)-1,8-naphthyridine-3-carboxylic acid] | 140 nM | approximately 5 fold | significantly impaired | reduction in cytotoxicity | 720 nM | increased | no effect | 4.6 × |  |  | 
COc1cccc2c1C(=O)c1c(O)c3c(c(O)c1C2=O)C[C@@](O)(C(=O)CO)C[C@@H]3O[C@H]1C[C@H](N)[C@H](O)[C@H](C)O1 [doxorubicin] | 50 nM | approximately 4 fold | significantly impaired | reduction in cytotoxicity | 190 nM | increased | significantly reduced |  | more small DNA fragments | more small DNA fragments | more small DNA fragments
